Laboratory results reported in US9400280B2, “Piperidine derivatives and methods of treating hepatitis B infections” (Novira Therapeutics, Inc., priority 2014, dated 2016).

What was measured:
[1] = target: HBV C150Bo capsid (core) protein (Hepatitis B virus genotype D subtype adw, UniProt P03147, C107A/C48A/C61A/R150C); experiment: HBV assembly assay (fluorescence quenching in vitro capsid assembly); type: biochemical; settings: at about 10 μM; 50 mM Hepes pH 7.5, 150 mM NaCl, 1 hour at room temperature
[2] = test system: HBV replication in HepG2-2.2.15 cells; experiment: Dot-blot assay (inhibition of HBV replication); type: cell-based; settings: at 10 μM, six days, reduction in HBV DNA levels
Method: Compounds active in the HBV assembly assay are tested for their activity and toxicity in cellular assay. In the first anti-viral assay, the ability of compounds to inhibit HBV replication in an HBV-producing hepatoma cell line using the dot-blot method is evaluated.
Briefly, confluent monolayers of HepG2-2.2.15 cells are incubated with complete medium containing various concentrations of a test compound. Three days later, the culture medium is replaced with fresh medium containing the appropriately diluted test compound. Six days following the initial administration of the test compound, the cell culture supernatant is collected, and cell lysis is performed. The samples are applied onto Nylos membranes and DNA is immobilized to the membrane by UV cross-linking. After pre-hybridization, the HBV probe is added and the hybridization is performed overnight. The membranes are exposed to the Kodak films; antiviral activity is calculated from the reduction in HBV DNA levels (EC50). The EC50 for antiviral activity is calculated from the dose response curves of active compounds. Assay performance over time is monitored by the use of the standard positive control compounds ETV, BAY 41-4109, and HAP-1.
Selected compounds were tested for their activity and toxicity in cellular assay. In the first anti-viral assay, the ability of compounds to inhibit HBV replication in an HBV-producing hepatoma cell line using the dot-blot method was evaluated.
Confluent monolayers of HepG2-2.2.15 cells were incubated with complete medium containing various concentrations of a test compound. Three days later, the culture medium was replaced with fresh medium containing the appropriately diluted test compound. Six days following the initial administration of the test compound, the cell culture supernatant was collected, and cell lysis was performed. The samples were applied onto Nylos membranes and DNA was immobilized to the membrane by UV cross-linking. After pre-hybridization, the HBV probe was added and the hybridization was performed overnight. The membranes were exposed to the Kodak films; antiviral activity was calculated from the reduction in HBV DNA levels (EC50). The EC50 for antiviral activity was calculated from the dose response curves of active compounds. Assay performance over time was monitored by the use of the standard positive control compounds ETV, BAY 41-4109, and HAP-1.

Sequence of HBV C150Bo capsid (core) protein (P03147 1-150 C48A/C61A/C107A/R150C): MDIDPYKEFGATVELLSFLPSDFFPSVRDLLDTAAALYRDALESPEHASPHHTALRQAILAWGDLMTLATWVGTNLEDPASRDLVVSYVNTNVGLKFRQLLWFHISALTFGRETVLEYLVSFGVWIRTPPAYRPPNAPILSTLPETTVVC

For `O=C(Nc1cc(F)c(F)c(F)c1)c1ccc(F)c(S(=O)(=O)N2CCC(O)C(F)(F)C2)c1` (stereo not drawn) [Compound 1732], the “Activity (HBV assembly assay)” value [1] was “+ (‘+’ indicates >50% activity at about 10 (μM))” and the Activity in dot-blot-assay [2] was “+ (‘+’ indicates >50% activity at 10 (μM))”.

With `O=C(Nc1ccc(F)c(F)c1)c1ccc(F)c(S(=O)(=O)N2CCC(O)C(F)(F)C2)c1` (stereo not drawn) [Compound 1733] the “Activity (HBV assembly assay)” value [1] was “+ (‘+’ indicates >50% activity at about 10 (μM))” and the Activity in dot-blot-assay [2] was “+ (‘+’ indicates >50% activity at 10 (μM))”.

For `O=C(Nc1ccc(F)c(Cl)c1)c1ccc(F)c(S(=O)(=O)N2CCC(O)C(F)(F)C2)c1` (stereo not drawn) [Compound 1734], the “Activity (HBV assembly assay)” value [1] was “+ (‘+’ indicates >50% activity at about 10 (μM))” and the Activity in dot-blot-assay [2] was “+ (‘+’ indicates >50% activity at 10 (μM))”.

With `O=C(Nc1ccc(F)c(Cl)c1)c1ccc(O)c(S(=O)(=O)N2CCC(O)C(F)(F)C2)c1` (stereo not drawn) [Compound 1963] the “Activity (HBV assembly assay)” value [1] was “+ (‘+’ indicates >50% activity at about 10 (μM))”.

In the case of `COc1ccc(C(=O)Nc2ccc(F)c(Cl)c2)cc1S(=O)(=O)N1CCC(O)C(F)(F)C1` (stereo not drawn) [Compound 1964], the “Activity (HBV assembly assay)” value [1] is reported as “+ (‘+’ indicates >50% activity at about 10 (μM))”.

`CCOc1ccc(C(=O)Nc2ccc(F)c(Cl)c2)cc1S(=O)(=O)N1CCC(O)C(F)(F)C1` (stereo not drawn) [Compound 1965] was tested, and the “Activity (HBV assembly assay)” value [1] was “+ (‘+’ indicates >50% activity at about 10 (μM))”.

In the case of `O=C(Nc1ccc(F)c(Cl)c1)c1ccc(OC2CC2)c(S(=O)(=O)N2CCC(O)C(F)(F)C2)c1` (stereo not drawn) [Compound 1967], the “Activity (HBV assembly assay)” value [1] is reported as “+ (‘+’ indicates >50% activity at about 10 (μM))”.

With `O=C(Nc1ccc(F)c(Cl)c1)c1ccc(CF)c(S(=O)(=O)N2CCC(O)C(F)(F)C2)c1` (stereo not drawn) [Compound 1995] the “Activity (HBV assembly assay)” value [1] was “+ (‘+’ indicates >50% activity at about 10 (μM))” and the Activity in dot-blot-assay [2] was “+ (‘+’ indicates >50% activity at 10 (μM))”.
